Consider 8 compounds from ChEMBL document CHEMBL2177036, “Design and validation of bicyclic iminopyrimidinones as beta amyloid cleaving enzyme-1 (BACE1) inhibitors: conformational constraint to favor a bioactive conformation” (J Med Chem, 2012).

Data set [1] in a line: Ratio of drug uptake in brain to plasma in rat at 10 mg/kg, po at 6 hrs. The settings on record: read-out: BPR. The format is ADME, organism-based. More on the design: dose 10 mg/kg, route oral.
A short description of data set [2]: AUC (0 to 6 hrs) in rat at 10 mg/kg po. The settings on record: plasma. Format: ADME, organism-based. The arrangement: time < 6 hr, dose 10 mg/kg, route oral.
Data set [3] can be described thus: Drug uptake in rat brain at 10 mg/kg, po at 6 hrs. Format: ADME, organism-based. The arrangement: dose 10 mg/kg, route oral. The settings on record: read-out: Drug uptake.
The nature of data set [4]: Clearance in rat hepatocytes assessed per 10^6 cells. Format: ADME, cell-based, Hepatocyte. The settings on record: read-out: CLH.
The test system of another data set is Brain. The data set can be described thus: Free drug concentration in rat brain at 10 mg/kg, po at 6 hrs. The arrangement: dose 10 mg/kg, route oral. The settings on record: in vivo. Format: ADME, organism-based.
Data set [5] can be described thus: Plasma concentration in rat at 10 mg/kg, po at 6 hrs. Format: ADME, organism-based. The arrangement: dose 10 mg/kg, route oral.
A short description of data set [6]: Cmax in rat at 10 mg/kg, po at 1 hr. The format is ADME, organism-based. The arrangement: dose 10 mg/kg, route oral. The settings on record: in vivo.
The nature of data set [7]: Oral bioavailability in rat at 10 mg/kg. The settings on record: in vivo. Format: ADME, organism-based.
A short description of data set [8]: Cmax in rat at 10 mg/kg, po. The format is ADME, organism-based. The arrangement: dose 10 mg/kg, route oral. The settings on record: in vivo.
Data set [9] in a line: Intrinsic clearance in rat hepatocytes assessed per 10^6 cells. The format is ADME, cell-based, Hepatocyte. The settings on record: read-out: CLH.
Data set [10] in a line: Apparent permeability across human Caco2 cells. The format is ADME, cell-based. The settings on record: Caco-2.
The nature of data set [11]: Intrinsic clearance in cynomolgus monkey hepatocytes assessed per 10^6 cells. Format: ADME, cell-based, Macaca fascicularis, Hepatocyte. The settings on record: read-out: CLH.
Data set [12] in a line: AUC (0 to 24 hrs) in rat at 10 mg/kg po. Format: ADME, organism-based. More on the design: time < 24 hr, dose 10 mg/kg, route oral. The settings on record: plasma.
Data set [13] can be described thus: Intrinsic clearance in human hepatocytes assessed per 10^6 cells. The settings on record: read-out: CLH. Format: ADME, cell-based, Hepatocyte.

Consider `Cc1cnc(N2C[C@H]3C(=O)N(C)C(=N)N[C@@]3(c3cc(-c4cccc(C#N)c4)cs3)C2)nc1`, for which the Kp at 6 h in [1] was under 0.1. The same compound had an AUC(0-t) at 6 h in [2] of 111 µM·h. For the same compound, the concentration at 6 h in data set [3] turned out to be 232 nM.

In [2], `CN1C(=O)[C@@H]2CN(C(=O)c3ccccc3)C[C@]2(c2cc(-c3cccc(C#N)c3)cs2)N=C1N` registered an AUC(0-t) at 6 h of 0.024 µM·h.

`CN1C(=N)N[C@@]2(c3cc(-c4ccc(F)c(C#N)c4)cs3)CN(C(=O)c3cccc(F)c3)C[C@H]2C1=O`: in data set [4], the hepatocyte CLint is 46 µL/min/1e6 cells. Besides, in data set [2], the AUC(0-t) at 6 h came to 0.3 µM·h.

The compound `CC#Cc1cncc(-c2csc([C@]34CN(C(=O)c5cccc(F)c5)C[C@H]3C(=O)N(C)C(N)=N4)c2)c1` came in with an AUC(0-t) at 6 h in data set [2] of 0.3 µM·h.

`CC#Cc1cncc(-c2csc([C@]34CN(c5cccc(OC(C)C)c5)C[C@H]3C(=O)N(C)C(N)=N4)c2)c1`: the AUC(0-t) at 6 h in data set [2] came to 3.7 µM·h.

For `CN1C(=O)[C@@H]2CN(c3ncccn3)C[C@]2(c2cc(-c3cccc(C#N)c3)cs2)N=C1N`, the Kp at 6 h in data set [1] was found to be 1. Also, the “Drug uptake(free)” value with Brain was found to be 1 nM. Besides, in data set [2], the AUC(0-t) at 6 h amounted to 2 µM·h. In addition, the concentration at 6 h in data set [5] worked out at 60 nM; in [3], 58 nM. In addition, the Cmax in [6] was 1000 nM.

For `CN1C(=N)N[C@@]2(c3cc(-c4cccc(C#N)c4)cs3)CN(c3ncc(F)cn3)C[C@H]2C1=O`, the Kp at 6 h in data set [1] is 0.1. Besides, the bioavailability in data set [7] was determined as 97%. In [8], this compound returned a Cmax of 6100 nM. In addition, the hepatocyte CLint is 13.5 µL/min/1e6 cells in [9], 5.7 µL/min/1e6 cells in data set [11] and 2 µL/min/1e6 cells in [13]. Further, the Papp in data set [10] turned out to be 15.1 ×10⁻⁶ cm/s. Moreover, the “Drug uptake(free)” value in the data set on Brain stood at 11 nM. Also, the AUC(0-t) at 6 h in data set [2] is 31 µM·h. In [12], this compound showed an AUC(0-t) at 24 h of 31 µM·h. Further, the concentration at 6 h in data set [3] worked out at 463 nM.

As to `CN1C(=N)N[C@@]2(c3cc(-c4cccc(C#N)c4)cs3)CN(c3ncc(Cl)cn3)C[C@H]2C1=O`, the Kp at 6 h in data set [1] came out at 0.1. The “Drug uptake(free)” value in the data set on Brain amounted to 4 nM. Also, the AUC(0-t) at 6 h in data set [2] was found to be 90 µM·h. Besides, the concentration at 6 h in data set [3] worked out at 965 nM.
